Like-named read-outs stand apart in the source and are kept apart here.
Legend:
[1] = target: sigma 2 receptor (Homo sapiens, UniProt Q5BJF2); experiment: Sigma 2 receptor radioligand competition binding; settings: for Ki: read-out: Ki (nM) Sig2R; for Ki ratio Sig1R/Sig2R: ratio of Sig1R Ki to Sig2R Ki
[2] = target: sigma 1 receptor (Homo sapiens, UniProt Q99720); experiment: Sigma 1 receptor radioligand competition binding; settings: read-out: Ki (nM) Sig1R
[3] = Table 1, 7-piperazinyl-tetrahydronaphthalene analogs
[4] = Table 2, piperazinyl-tetrahydronaphthalene analogs

sigma 2 receptor, sequence (Q5BJF2 whole entry, species assumed): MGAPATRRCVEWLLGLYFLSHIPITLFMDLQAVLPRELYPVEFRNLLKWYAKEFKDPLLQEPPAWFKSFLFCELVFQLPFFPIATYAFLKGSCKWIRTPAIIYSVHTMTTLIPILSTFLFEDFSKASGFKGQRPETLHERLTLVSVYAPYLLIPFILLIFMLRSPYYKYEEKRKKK
sigma 1 receptor, sequence (Q99720 whole entry, species assumed): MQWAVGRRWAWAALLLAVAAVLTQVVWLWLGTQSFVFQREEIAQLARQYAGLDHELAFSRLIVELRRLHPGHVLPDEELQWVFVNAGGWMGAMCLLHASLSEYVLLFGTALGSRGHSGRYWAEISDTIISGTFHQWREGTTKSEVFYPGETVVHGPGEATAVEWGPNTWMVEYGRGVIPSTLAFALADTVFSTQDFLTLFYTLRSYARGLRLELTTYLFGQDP

For `CCOC(=O)CN1CCN(c2ccc3c(c2)C(N(C)C(=O)OCc2ccccc2)CCC3)CC1` (centres unmarked) [MDW-1-169, Ethyl 2-(4-(8-(((benzyloxy)carbonyl)(methyl)amino)-5,6,7,8-tetrahydronaphthalen-2-yl)piperazin-1-yl)acetate], the Ki [1, 3] was 894 nM and the Ki [2, 3] was > 10000 nM.
With `CCOC(=O)CCN1CCN(c2ccc3c(c2)C(N(CC)C(=O)OCc2ccccc2)CCC3)CC1` (centres unmarked) [MDW-1-190, Ethyl 3-(4-(8-(((benzyloxy)carbonyl)(ethyl)amino)-5,6,7,8-tetrahydronaphthalen-2-yl)piperazin-1-yl)propanoate] the Ki [1, 3] was 20 nM, the “Ki ratio Sig1R/Sig2R” value ([1]; Table 1) was 166 and the Ki [2, 3] was 3320 nM.
`CCN1CCN(c2ccc3c(c2)C(N(C)C(=O)OCc2ccccc2)CCC3)CC1` (centres unmarked) [MDW-1-161, Benzyl (7-(4-ethylpiperazin-1-yl)-1,2,3,4-tetrahydronaphthalen-1-yl)(methyl)carbamate] was tested, and the Ki [1, 3] was 35 nM, the “Ki ratio Sig1R/Sig2R” value ([1]; Table 1) was 25 and the Ki [2, 3] was 887 nM.
For `CCOC(=O)CCN1CCN(c2ccc3c(c2)CCCC3N(C)C(=O)OCc2ccccc2)CC1` (centres unmarked) [MDW-1-207, Ethyl 3-(4-(5-(((benzyloxy)carbonyl)(methyl)amino)-5,6,7,8-tetrahydronaphthalen-2-yl)piperazin-1-yl)propanoate], the Ki [1, 4] was 91 nM, the “Ki ratio Sig1R/Sig2R” value ([1]; Table 2) was 7 and the Ki [2, 4] was 647 nM.
`COC(=O)CCN1CCN(c2ccc3c(c2)C(N(C)C(=O)OCc2ccccc2)CCC3)CC1` (centres unmarked) [MDW-1-166, Methyl 3-(4-(8-(((benzyloxy)carbonyl)(methyl)amino)-5,6,7,8-tetrahydronaphthalen-2-yl)piperazin-1-yl)propanoate] was tested, and the Ki [1, 3] was 43 nM, the “Ki ratio Sig1R/Sig2R” value ([1]; Table 1) was 67 and the Ki [2, 3] was 2860 nM.
`CCCN1CCN(c2ccc3c(c2)C(N(CC)C(=O)OCc2ccccc2)CCC3)CC1` (centres unmarked) [MDW-1-195, Benzyl ethyl(7-(4-propylpiperazin-1-yl)-1,2,3,4-tetrahydronaphthalen-1-yl)carbamate] was tested, and the Ki [1, 3] was 5 nM, the “Ki ratio Sig1R/Sig2R” value ([1]; Table 1) was 70 and the Ki [2, 3] was 321 nM.
In the case of `CN1CCN(c2ccc3c(c2)C(N(C)C(=O)OCc2ccccc2)CCC3)CC1` (centres unmarked) [MDW-1-93, Benzyl methyl(7-(4-methylpiperazin-1-yl)-1,2,3,4-tetrahydronaphthalen-1-yl)carbamate], the Ki [1, 3] is reported as 284 nM, the “Ki ratio Sig1R/Sig2R” value ([1]; Table 1) is reported as 10 and the Ki [2, 3] is reported as 2940 nM.
For `CCCN1CCN(c2ccc3c(c2)C(OC(=O)CCc2ccccc2)CCC3)CC1` (centres unmarked) [MDW-1-290, 7-(4-Propylpiperazin-1-yl)-1,2,3,4-tetrahydronaphthalen-1-yl 3-phenylpropanoate], the Ki [1, 3] was 25 nM, the “Ki ratio Sig1R/Sig2R” value ([1]; Table 1) was 1 and the Ki [2, 3] was 33 nM.
In the case of `CC(C)N1CCN(c2ccc3c(c2)C(N(C)C(=O)OCc2ccccc2)CCC3)CC1` (centres unmarked) [MDW-1-167, Benzyl (7-(4-isopropylpiperazin-1-yl)-1,2,3,4-tetrahydronaphthalen-1-yl)(methyl)carbamate], the Ki [1, 3] is reported as 8 nM, the “Ki ratio Sig1R/Sig2R” value ([1]; Table 1) is reported as 27 and the Ki [2, 3] is reported as 223 nM.
`CCCN1CCN(c2cccc3c2CCCC3N(C)C(=O)OCc2ccccc2)CC1` (centres unmarked) [MDW-1-215, Benzyl methyl(5-(4-propylpiperazin-1-yl)-1,2,3,4-tetrahydronaphthalen-1-yl)carbamate] was tested, and the Ki [1, 4] was 26 nM, the “Ki ratio Sig1R/Sig2R” value ([1]; Table 2) was 0.5 and the Ki [2, 4] was 12 nM.
`CCCN1CCN(c2ccc3c(c2)CCCC3N(C)C(=O)OCc2ccccc2)CC1` (centres unmarked) [MDW-1-204, Benzyl methyl(6-(4-propylpiperazin-1-yl)-1,2,3,4-tetrahydronaphthalen-1-yl)carbamate] was tested, and the Ki [1, 4] was 13 nM, the “Ki ratio Sig1R/Sig2R” value ([1]; Table 2) was 3 and the Ki [2, 4] was 40 nM.
With `CCOC(=O)CCN1CCN(c2cccc3c2CCCC3N(C)C(=O)OCc2ccccc2)CC1` (centres unmarked) [MDW-1-214, Ethyl 3-(4-(5-(((benzyloxy)carbonyl)(methyl)amino)-5,6,7,8-tetrahydronaphthalen-1-yl)piperazin-1-yl)propanoate] the Ki [1, 4] was 34 nM, the “Ki ratio Sig1R/Sig2R” value ([1]; Table 2) was 9 and the Ki [2, 4] was 303 nM.

— patent publication US20210323913A1, “SIGMA RECEPTOR BINDERS” (BOARD OF REGENTS, THE UNIVERSITY OF TEXAS SYSTEM, priority 2016, published 2021)
